# Experimental data taken from US6653337B2, “Therapy of auto-immune disease by a photochemotherapeutical method” (Meiji Seika Kaisha, Ltd., priority 1996, dated 2003).
# “And” between values parts separate entries of the source, which are not always exact repeats. Equal entries are not always repeated. “Also recorded” adds a separate entry of the source.
# What was measured:
# [1] = system: MRL/1pr mice; assay: Liver (GPT enzyme in blood) and skin safety in MRL/1pr mice after NPe6 photochemotherapy; assay type: in vivo
# Procedure: To MRL/1pr mice (eight mice per group) of 18 week-old age which have been affected completely by auto-immune diseases, a solution of mono-L-aspartyl chlorin e6 tetrasodium salt (abbreviation: NPe6) dissolved in a physiological saline solution at a NPe6 concentration of 0.1 mg/ml was intra-venously administered in such an amount to give a dosage of NPe6 of 0.5 mg/kg. After 30 minutes from the administration of NPe6, the mice were irradiated with a laser light at wave-length of 664 nm in such a manner that the skin surface on the abdominal region already shaved off of said mice would receive the laser light over a wide area of about 25 cm^2 per mouse tested at an intensity of 20 Joules/cm^2. Thus, the NPe6 contained in the blood stream within the blood vessel beneath the skin of the abdominal region of the mice was irradiated with the laser light and thereby was excited photochemically. […] After 24 hours from the completion of the therapeutic treatments, which was counted from the final run of irradiation of the laser light applied to the mice of the treated group, and thus at the time when the mice tested became 19 week-old, the judgment was made about the therapeutical effects appeared on the treated mice. […]
# [2] = in vivo
# [3] = system: MRL/1pr mice; assay: Kidney function (urea nitrogen in blood, protein in urine) of MRL/1pr mice after NPe6 photochemotherapy; assay type: in vivo; conditions: 19 weeks old, 24 h after 8th laser irradiation, NPe6 0.5 mg/kg i.v. + 664 nm laser, eight times
# Excerpt: (§1) MRL/1pr mice, which are known as a model of a spontaneous systemic auto-immune diseases, have such inherent property that they spontaneously develop the systemic auto-immune disease due to 1pr-gene. In this case, the characteristic observations of the resulting auto-immune disease include the formation of lymphoma and splenoma as caused by proliferation of heterolymphoid cells, the production of anti-ds-DNA antibody as the auto-antibody, and (or) the outbreak of lupus nephritis owing to the deposition of immune complexes, whereby an early death of the MRL/1pr mice can naturally be involved. For instance, untreated MRL/1pr mice usually have such nature that their mortality reaches 50% at 25 week-old.
# (§2) To MRL/1pr mice (eight mice per group) of 18 week-old age which have been affected completely by auto-immune diseases, a solution of mono-L-aspartyl chlorin e6 tetrasodium salt (abbreviation: NPe6) dissolved in a physiological saline solution at a NPe6 concentration of 0.1 mg/ml was intra-venously administered in such an amount to give a dosage of NPe6 of 0.5 mg/kg. […] After 24 hours from the completion of the therapeutic treatments, which was counted from the final run of irradiation of the laser light applied to the mice of the treated group, and thus at the time when the mice tested became 19 week-old, the judgment was made about the therapeutical effects appeared on the treated mice. […]
# [4] = system: anti-ds-DNA antibody; assay: Anti-ds-DNA antibody value in blood of MRL/1pr mice after NPe6 photochemotherapy (Anti-DNA kit); assay type: in vivo
# Excerpt: as §1, §2
# [5] = system: MRL/1pr mice; assay: Survival of MRL/1pr mice after NPe6 photochemotherapy; assay type: in vivo; conditions: for Survival rate (%) of the mice: treated group, 8 mice
# Excerpt: as §1
# To MRL/1pr mice (eight mice per group) of 18 week-old age which have been affected completely by auto-immune diseases, a solution of mono-L-aspartyl chlorin e6 tetrasodium salt (abbreviation: NPe6) dissolved in a physiological saline solution at a NPe6 concentration of 0.1 mg/ml was intra-venously administered in such an amount to give a dosage of NPe6 of 0.5 mg/kg. After 30 minutes from the administration of NPe6, the mice were irradiated with a laser light at wave-length of 664 nm in such a manner that the skin surface on the abdominal region already shaved off of said mice would receive the laser light over a wide area of about 25 cm^2 per mouse tested at an intensity of 20 Joules/cm^2. Thus, the NPe6 contained in the blood stream within the blood vessel beneath the skin of the abdominal region of the mice was irradiated with the laser light and thereby was excited photochemically. Such photochemotherapeutic procedure comprising the intravenous administration of NPe6 and the irradiation of the laser light was applied eight times to each of the mice under test for 10 days. After 24 hours from the completion of the therapeutic treatments, which was counted from the final run of irradiation of the laser light applied to the mice of the treated group, and thus at the time when the mice tested became 19 week-old, the judgment was made about the therapeutical effects appeared on the treated mice. Further, the survival effect on the treated mice was also observed over the period of from the start of practicing this therapeutic treatments to the point of the 49 week-old age of the mice.
# For the untreated group of MRL/1pr mice (10 mice per group, 18-weeks old), merely a physiological saline solution (containing no NPe6) was administered intravenously in the same amount as that for the treated group of mice, and then the mice were irradiated with a laser light as similar as the treated group of mice.
# (3) After the completion of the treatment as effected by the above-mentioned photochemotherapeutic procedure, the mice under the test were bred to be 49-weeks old and the survival rate (%) of the mice was measured once a week.
# [6] = system: CD-1 mice (male); assay: Acute toxicity of NPe6 in mice (LD50); assay type: in vivo
smiles,measurement,setting,value
"C=Cc1c(C)c2cc3nc(c(CC(=O)N[C@@H](CC(=O)[O-])C(=O)[O-])c4[nH]c(cc5nc(cc1[nH]2)C(C)=C5CC)c(C)c4C(=O)[O-])[C@@H](CCC(=O)[O-])[C@@H]3C.[Na+].[Na+].[Na+].[Na+] [NPe6, mono-L-aspartyl chlorin e6 tetrasodium salt]",content of GPT enzyme in the blood compared with untreated group,"[1]; 19 weeks old, 24 h after 8th laser irradiation",no difference was found
same,visual observation of the skin after eight percutaneous laser irradiations,"[1]; shaved abdominal region, 664 nm laser 20 Joules/cm^2",not observed visually that any action of changing the skin was involved
same,"photo-toxicity test: reactions such as erythema, edema",[2],"no reactions such as erythema, edema"
same,content of protein in urine,[3],85.2 ± 5.0 mg/dL
same,content of urea nitrogen in blood,[3],22.3 ± 1.4 mg/dL
same,antibody value of anti-ds-DNA antibody in blood,"[4]; 19 weeks old, 24 h after 8th laser irradiation, NPe6 0.5 mg/kg i.v. + 664 nm laser 20 Joules/cm^2, eight times for 10 days",5.7±5.3 IU/ml
same,"effect on antibody value of the auto-antibody (anti-ds-DNA) in blood, in words","[4]; NPe6 i.v. + laser light at 664 nm, versus untreated group",decreasing remarkably the antibody value; also recorded: significantly and remarkably decreased
same,Survival rate (%) of the mice,"[5]; age 18 weeks (start of treatment), number in parentheses = surviving mice",100 (8) %
same,Survival rate (%) of the mice,[5]; age 20 weeks,100 (8) %
same,Survival rate (%) of the mice,[5]; age 21 weeks,100 (8) %
same,Survival rate (%) of the mice,[5]; age 23 weeks,100 (8) %
same,Survival rate (%) of the mice,[5]; age 25 weeks,100% and 100 (8) %
same,Survival rate (%) of the mice,[5]; age 27 weeks,100 (8) %
same,Survival rate (%) of the mice,[5]; age 30 weeks,100 (8) %
same,Survival rate (%) of the mice,[5]; age 33 weeks,88 (7) %
same,Survival rate (%) of the mice,[5]; age 36 weeks,88 (7) %
same,Survival rate (%) of the mice,[5]; age 43 weeks,75 (6) %
same,Survival rate (%) of the mice,[5]; age 46 weeks,63 (5) %
same,Survival rate (%) of the mice,[5]; age 49 weeks,63 (5) %
same,age at which the survival rate of the mice is 50 %,[5]; treated group of MRL/1pr mice,> 49 weeks
same,"acute toxicity, LD50 value",[6],164 mg/kg
